Laboratory results taken from patent publication US4816449A, “Immunotherapeutic anti-inflammatory peptide agents” (Immunetech Pharmaceuticals, priority 1986, dated 1989).
Where a SMILES comes first, the peptide text is derived from it. Where no end group is shown, it is not given here.

Assays:
[1] = target: T1, IgE Fc receptors on a human lymphoblastoid cell line (wil-2wt) (Homo sapiens, UniProt P06734); conditions: Hamburger, Immunology 38, 781 (1979); cited from earlier work
T1 construct: IgE Fc receptors on a human lymphoblastoid cell line (wil-2wt); host or cells: wil-2wt human lymphoblastoid cell line (endogenous receptor)
T1 sequence (P06734 1-321): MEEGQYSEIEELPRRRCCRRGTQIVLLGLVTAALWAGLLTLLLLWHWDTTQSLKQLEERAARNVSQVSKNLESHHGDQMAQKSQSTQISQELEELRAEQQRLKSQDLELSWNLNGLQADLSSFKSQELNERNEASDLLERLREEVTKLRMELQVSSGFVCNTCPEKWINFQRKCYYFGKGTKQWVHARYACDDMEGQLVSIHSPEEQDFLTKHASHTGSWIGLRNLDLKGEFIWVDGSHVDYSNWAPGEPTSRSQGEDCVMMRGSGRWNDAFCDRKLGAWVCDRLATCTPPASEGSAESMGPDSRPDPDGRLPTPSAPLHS

human mast cells = conditions: Stanworth et al. 1979; cited from earlier work
rodent mast cells = conditions: Stanworth et al. 1979; cited from earlier work
[2] = tested on: human monocyte IgG Fc receptors; conditions: cited from earlier work
[3] = tested on: human natural killer (NK) cell-induced cytotoxicity against K562 human erythroleukemia cells; assay: natural killer (NK) cell assay, chromium 51 release; type: cell-based
Protocol: 1. To calculate percent inhibition, the average of the three dilutions of
2. N K effector cells were human mononuclear cells freshly isolated by
when incubated with normal human mononuclear cells (lymphocytes and monocytes) separated by ficoll-metronidazole gradient. […] E., et al., J. Clin. Invest. 67:1324, 1981).
The target cells used were a human erythroleukemia cell line K562 which has molecular structures recognized by NK cells. The K562 targets were prepared by incubating them with the radioactive isotope chromium 51 which is incorporated within the cells. The cells were then washed to remove externally adherent chromium 51 and 20,000 K562 cells were added to 400,000, 200,000 and 100,000 mononuclear cells to provide NK killer-to-target ratio of 20 to 1, 10 to 1, and 5 to 1, respectively, in a final volume of 200 microliters. After a 3-hour incubation at 37° C. in a 5% CO2 atmosphere, the amount of chromium 51 in the supernatent (released from dead target cells) was counted to quantitate the amount of NK killing activity. The killing activity of peptide-treatedcells was compared to non-peptide treated cells to assess the peptide's effect on NK killing activity.

[4] = tested on: macrophage IgG Fc receptors of mice; conditions: Stanworth, Mol. Immunol. 19, 1245 (1982); cited from earlier work
mouse macrophages = conditions: Stanworth, Mol. Immunol. 19, 1245 (1982); cited from earlier work
[5] = peptide 100 μg/ml, (killer-to-target ratio 20 to 1)

Row | Compound | % cytotoxicity ([3]; peptide 25 μg/ml, 5 to 1) [%] | % cytotoxicity ([3]; peptide 25 μg/ml, 10 to 1) [%] | % cytotoxicity ([3]; peptide 25 μg/ml, 20 to 1) [%] | % cytotoxicity ([3]; peptide 50 μg/ml, 5 to 1) [%] | % cytotoxicity ([3]; peptide 50 μg/ml, 10 to 1) [%] | % cytotoxicity ([3]; peptide 50 μg/ml, 20 to 1) [%] | % cytotoxicity ([3]; peptide 100 μg/ml, 5 to 1) [%] | % cytotoxicity ([3]; peptide 100 μg/ml, 10 to 1) [%] | % cytotoxicity [3, 5] [%] | further results
1 | PDARHS [hexapeptide derived from Cε 4 at aa 476-481] |  |  |  |  |  |  |  |  |  | blocking of human IgE-binding to IgE Fc receptors on wil-2wt cells [1]: could block
2 | PRKTKGSGFFVF [peptide identical to portion of Cε 4 of human IgE, aa 495-506] |  |  |  |  |  |  |  |  |  | degranulation of human mast cells (human mast cells): able to cause degranulation; degranulation of rodent mast cells (rodent mast cells): able to cause degranulation
3 | QYDSTYR [peptide identical to IgG aa 295-301] |  |  |  |  |  |  |  |  |  | blocking of IgG binding to human monocyte IgG Fc receptors [2]: could slightly block
4 | C[C@H](NC(=O)[C@H](CC(=O)O)NC(=O)[C@@H]1CCCN1)C(=O)N[C@@H](CCCNC(=N)N)C(=O)O [Pro--Asp--Ala-- Arg, Pro-Asp-Ala-Arg] (H-PDAR-OH) | 10.1 | 17.8 | 22.7 | 10.3 | 15.5 | 23.1 | 5.6 | 10.4 | 17.1 | 
5 | C[C@H](NC(=O)[C@@H](N)CC(=O)O)C(=O)N[C@@H](CCCNC(=N)N)C(=O)N[C@@H](Cc1c[nH]cn1)C(=O)O [Asp--Ala--Arg--His, Asp-Ala-Arg-His] (H-DARH-OH) | 6.8 | 12.9 | 19.3 | 7.5 | 12.8 | 13.8 | 10.5 | 16.4 | 24.5 | 
6 | YSKLTVDKSR [decapeptide from human IgG, identical to IgG aa 407-416] |  |  |  |  |  |  |  |  |  | blocking of human IgG binding to macrophage IgG Fc receptors of mice [4]: blocked human IgG binding
7 | VFSRLEVTRAE [peptide identical to a portion of Cε 4 of human IgE at aa 505-515] |  |  |  |  |  |  |  |  |  | effect on binding of 125I-human IgG to mouse macrophages (mouse macrophages): marked enhancement
8 | C[C@H](N)C(=O)N[C@@H](CCCNC(=N)N)C(=O)N[C@@H](Cc1c[nH]cn1)C(=O)N[C@@H](CO)C(=O)O [Ala--Arg--His--Ser, Ala-Arg-His-Ser] (H-ARHS-OH) | 12.5 | 19.4 | 24.8 | 10.4 | 20.7 | 26.3 | 10.6 | 18.5 | 21.8 | 
